Reference: the supplement of paper PMC10331698
± gives the standard deviation of the averaged measurements.

What was measured:
Assay in all cases: level (log10 ratio to DMSO vehicle control); higher = higher biomarker level / cell amount than vehicle control
Conditions in all cases: in DMSO
[1] = compound: CNS(=O)(=O)C(F)(F)C(F)(F)C(F)(F)C(F)(F)C(F)(F)C(F)(F)C(F)(F)C(F)(F)F [N-Methylperfluorooctanesulfonamide]
Protocol: (§1)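 BioMAP Diversity Plus panel of 12 human primary cell co-culture systems (3C, 4H, LPS, SAg, BT, BF4T, BE3C, CASM3C, HDF3CGF, KF3CT, MyoF, Mphg). Compounds were added 1 h before stimulation and left for 24 h (MyoF 48 h; BT 72 h for soluble read-outs or 6 d for IgG). Biomarkers were read by ELISA, cytotoxicity by SRB, PBMC viability and proliferation by Alamar Blue. Each well value was divided by the mean of 8 DMSO control wells on the same plate and log10 transformed; duplicate blinded samples were tested at 4 concentrations.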

[2] = compound: O=S(=O)(O)C(F)(F)C(F)(F)C(F)(F)C(F)(F)C(F)(F)C(F)(F)C(F)(F)C(F)(F)F [Perfluorooctanesulfonic acid]
Protocol: as §1

[3] = compound: C=C(C)C(=O)OCC(F)(F)C(F)(F)C(F)(F)C(F)(F)C(F)(F)C(F)(F)C(F)(F)F
Protocol: as §1

[4] = compound: O=C(O)C(F)(F)C(F)(F)C(F)(F)C(F)(F)C(F)(F)C(F)(F)C(F)(F)C(F)(F)C(F)(F)C(F)(F)C(F)(F)C(F)(F)C(F)(F)F [Perfluorotetradecanoic acid]
Protocol: as §1

[5] = compound: CC(C)(C)C(=O)CC(=O)C(F)(F)C(F)(F)C(F)(F)F [(Heptafluorobutanoyl)pivaloylmethane]
Protocol: as §1

Hexafluoroglutaric acid = compound: O=C(O)C(F)(F)C(F)(F)C(F)(F)C(=O)O [Hexafluoroglutaric acid]
Protocol: as §1

[6] = compound: O=C(O)CCC(F)(F)C(F)(F)C(F)(F)C(F)(F)C(F)(F)F [2H,2H,3H,3H-Perfluorooctanoic acid]
Protocol: as §1

Test System	level (log10) ([1]; 6700 nM)	level (log10) ([1]; 20000 nM)	level (log10) ([1]; 60000 nM)	level (log10) ([2]; 6700 nM)	level (log10) ([2]; 20000 nM)	level (log10) ([2]; 60000 nM)	level (log10) ([3]; 6700 nM)	level (log10) ([3]; 20000 nM)	level (log10) ([4]; 6700 nM)	level (log10) ([4]; 20000 nM)	level (log10) ([5]; 6700 nM)	level (log10) ([5]; 20000 nM)	level (log10) ([5]; 60000 nM)	level (log10) (Hexafluoroglutaric acid; 6700 nM)	level (log10) (Hexafluoroglutaric acid; 20000 nM)	level (log10) (Hexafluoroglutaric acid; 60000 nM)	level (log10) ([6]; 6700 nM)	level (log10) ([6]; 20000 nM)	level (log10) ([6]; 60000 nM)
HDF3CGF:SRB	-0.032 ± 0.03	0.005 ± 0.023	-0.008 ± 0.014	0.008 ± 0.037	-0.009 ± 0.027	-0.0365 ± 0.035	0.0255 ± 0.11	0.044 ± 0.12	0.027 ± 0.014	0.0205 ± 0.069	0.0015 ± 0.0021	0.0085 ± 0.013	0.0345 ± 0.032	-0.03 ± 0.083	-0.0095 ± 0.097	0.0245 ± 0.12	-0.006 ± 0.034	0.0185 ± 0.04	0.077 ± 0.028
MyoF:Collagen I	-0.019 ± 0.0071	-0.0015 ± 0.023	0.0265 ± 0.026	-0.012 ± 0.018	-0.0045 ± 0.0092	0.015 ± 0.021	0.01	-0.007 ± 0.0071	0.0015 ± 0.0078	0.0215 ± 0.033	-0.0165 ± 0.011	-0.007 ± 0.0099	0.0065 ± 0.013	-0.003 ± 0.013	-0.0005 ± 0.016	0.011 ± 0.0014	0.013 ± 0.0014	-0.0005 ± 0.0064	0.0055 ± 0.018
MyoF:CXCL8/IL-8	-0.0645 ± 0.056	-0.0895 ± 0.049	-0.163 ± 0.037	-0.057 ± 0.0028	-0.0755 ± 0.013	-0.025 ± 0.017	-0.0215 ± 0.013	0.013 ± 0.014	0.0095 ± 0.0078	0.017 ± 0.0071	0.022 ± 0.05	0.032 ± 0.068	0.03 ± 0.055	-0.0085 ± 0.0021	-0.0225 ± 0.013	-0.0015 ± 0.021	-0.032 ± 0.0042	-0.0215 ± 0.005	-0.018
KF3CT:CXCL10/IP-10	0.0005 ± 0.04	0.003 ± 0.034	0.0255 ± 0.026	-0.012 ± 0.02	-0.0065 ± 0.03	-0.015 ± 0.013	0.0075 ± 0.005	-0.015 ± 0.011	0.0065 ± 0.016	-0.0165 ± 0.016	0.004 ± 0.0099	-0.006 ± 0.0028	0.007 ± 0.0014	-0.001	-0.01 ± 0.0014	0.005 ± 0.0014	-0.0045 ± 0.0021	-0.0125 ± 0.0078	-0.0185 ± 0.011
KF3CT:PAI-I	0.0465 ± 0.0078	0.101 ± 0.0071	0.0425 ± 0.028	-0.0255 ± 0.013	-0.058 ± 0.02	-0.135 ± 0.052	-0.004 ± 0.02	0.006 ± 0.0014	-0.015 ± 0.0014	0 ± 0.0071	-0.0065 ± 0.019	-0.0025 ± 0.016	0.004 ± 0.02	-0.004 ± 0.0042	-0.0005 ± 0.005	0.0045 ± 0.0092	-0.0015 ± 0.00071	-0.0065 ± 0.0021	-0.017 ± 0.0085
KF3CT:uPA	0.007 ± 0.014	-0.011 ± 0.014	-0.0085 ± 0.012	-0.001 ± 0.0057	-0.012 ± 0.018	-0.021 ± 0.0057	0.0105 ± 0.0092	0.009 ± 0.0085	-0.014 ± 0.038	0.0115 ± 0.032	0.0025 ± 0.016	-0.0055 ± 0.012	-0.003 ± 0.027	-0.019 ± 0.024	-0.0055 ± 0.0035	-0.011 ± 0.011	-0.008 ± 0.013	-0.0095 ± 0.033	-0.004 ± 0.041
3C:CD62E/E-Selectin	-0.011 ± 0.025	0.01 ± 0.023	-0.072 ± 0.011	0.004 ± 0.0042	0.0175 ± 0.018	0.0695 ± 0.011	0.0095 ± 0.023	0.0075 ± 0.0092	-0.0245 ± 0.029	-0.0105 ± 0.00071	-0.0155 ± 0.0092	-0.022 ± 0.0099	-0.003 ± 0.017	-0.0035 ± 0.053	-0.002 ± 0.038	0.031 ± 0.014	-0.01 ± 0.038	-0.015 ± 0.058	0.006 ± 0.033
MyoF:SRB	-0.005 ± 0.0099	-0.0085 ± 0.012	-0.0065 ± 0.022	-0.0045 ± 0.00071	-0.0155 ± 0.00071	-0.0185 ± 0.019	-0.0005 ± 0.0021	-0.0065 ± 0.0064	0.0025 ± 0.0021	0.0055 ± 0.0078	-0.0015 ± 0.0064	-0.0085 ± 0.012	-0.002 ± 0.0057	0.0015 ± 0.00071	-0.002 ± 0.0085	-0.0045 ± 0.0092	-0.002 ± 0.0057	-0.0035 ± 0.0064	-0.0065 ± 0.015
KF3CT:IL-1alpha	0.0585 ± 0.026	0.0435 ± 0.026	0.051 ± 0.016	0.0105 ± 0.0064	-0.0165 ± 0.00071	-0.016 ± 0.0028	-0.014 ± 0.023	0.0015 ± 0.0092	-0.0135 ± 0.081	-0.0235 ± 0.054	0.02 ± 0.021	0.015 ± 0.013	0.02 ± 0.023	-0.021 ± 0.014	0.012 ± 0.013	-0.0395 ± 0.012	0.007 ± 0.0085	-0.0055 ± 0.016	-0.0345 ± 0.029
HDF3CGF:CXCL10/IP-10	-0.102 ± 0.064	-0.099 ± 0.071	-0.0875 ± 0.022	-0.0405 ± 0.036	-0.113 ± 0.039	-0.259 ± 0.054	-0.012 ± 0.0042	-0.002 ± 0.025	0.022 ± 0.0099	-0.0585 ± 0.1	-0.0195 ± 0.0078	-0.0105 ± 0.012	-0.076 ± 0.023	0.0035 ± 0.021	-0.008 ± 0.0071	-0.011 ± 0.037	-0.0015 ± 0.0092	0.02 ± 0.0014	-0.0205 ± 0.054
MyoF:alpha-SM Actin	-0.021 ± 0.068	-0.008 ± 0.042	0.024 ± 0.059	-0.0015 ± 0.023	0.004 ± 0.035	0.0105 ± 0.005	0.0085 ± 0.022	-0.0005 ± 0.0092	-0.008	-0.032 ± 0.0085	-0.006 ± 0.05	-0.002 ± 0.034	-0.0215 ± 0.0021	-0.008 ± 0.044	-0.0065 ± 0.029	0.033 ± 0.017	0.048 ± 0.024	0.017 ± 0.013	0.0205 ± 0.061
lMphg:CD40	-0.054 ± 0.042	-0.0365 ± 0.021	0.0255 ± 0.063	-0.027 ± 0.013	-0.0025 ± 0.005	0.02 ± 0.0014	-0.0265 ± 0.0064	-0.025 ± 0.0042	-0.0405 ± 0.036	-0.031 ± 0.014	-0.0075 ± 0.0021	0.004 ± 0.034	-0.017 ± 0.0014	-0.0015 ± 0.012	-0.013 ± 0.0014	-0.066 ± 0.061	-0.0205 ± 0.039	-0.0235 ± 0.04	-0.05 ± 0.041
KF3CT:SRB	-0.0005 ± 0.00071	-0.0035 ± 0.0078	-0.002 ± 0.024	-0.0195 ± 0.0021	-0.012 ± 0.0042	-0.012 ± 0.0099	-0.0185 ± 0.0092	-0.015 ± 0.011	-0.0005 ± 0.0035	0.0025 ± 0.0078	-0.0055 ± 0.0021	-0.003 ± 0.0071	-0.0065 ± 0.005	-0.0055 ± 0.0021	-0.011 ± 0.0057	0.003 ± 0.018	-0.006 ± 0.0014	-0.0015 ± 0.005	0.006 ± 0.0085
